Measured values taken from US20180271996A1, “COMBINATION THERAPIES OF HER2-TARGETED ANTIBODY-DRUG CONJUGATES” (Mersana Therapeutics, Inc., priority 2017, published 2018).
Non-standard residues stand in square brackets, D forms with d. Residues, ends and D or L forms follow the SMILES beside them. *: point of attachment. Dolaproine = CO[C@@H]([C@@H]1CCCN1)[C@@H](C)C(=O)O; Dil = CC[C@H](C)[C@H](NC)[C@@H](CC(=O)O)OC; NMe2Val = CC(C)[C@@H](C(=O)*)N(C)C; NH(3-hydroxypropyl) = OCCCN*

Columns and labels:
[1] = biological target: human HER2 (Homo sapiens, UniProt P04626); test: Inhibition of HER2 functional activity in vitro
Protocol: The HER2 antibodies disclosed herein serve to modulate, block, inhibit, reduce, antagonize, neutralize or otherwise interfere with the functional activity of HER2. HER2. Functional activities of HER2 include for example, modulation of PI3K-Akt pathway activity. […] PI3K-Akt pathway activity is assessed using any art-recognized method for detecting PI3K-Akt pathway activity, including, but not limited to detecting levels of phosphorylated Akt in the presence and absence of an antibody or antigen binding fragment disclosed herein.
The HER2 antibodies are considered to completely modulate, block, inhibit, reduce, antagonize, neutralize or otherwise interfere with HER2 functional activity when the level of HER2 functional activity in the presence of the HER2 antibody is decreased by at least 95%, e.g., by 96%, 97%, 98%, 99% or 100% as compared to the level of HER2 functional activity in the absence of binding with a HER2 antibody described herein. The HER2 antibodies are considered to partially modulate, block, inhibit, reduce, antagonize, neutralize or otherwise interfere with HER2 functional activity when the level of HER2 activity in the presence of the HER2 antibody is decreased by less than 95%, e.g., 10%, 20%, 25%, 30%, 40%, 50%, 60%, 75%, 80%, 85% or 90% as compared to the level of HER2 activity in the absence of binding with a HER2 antibody described herein.

[2] = tested on: TumorGraft™ model of non-small cell lung carcinoma (CTG-0860); test: Antitumor activity in low passage TumorGraft model of non-small cell lung carcinoma in humanized mice (CTG-0860); format: in vivo; details: per Table 1: XMT-1519 conjugate 1.0 mg/kg IV q7dx3; pembrolizumab 2.5 mg/kg IP q5dx6; n=5 per group; FIG. 1
Protocol: Unmatched human leukocyte antigen (HLA) humanized CD34+ engrafted immune compromised female mice (Taconic NOG) were subcutaneously implanted unilaterally on the left flank with tumor fragments (n=5 for each group and two additional mice for tumor infiltration lymphocytes measurement for the test compounds only). […] Tumor size was measured at the times indicated in FIG. 1 using digital calipers. Tumor volume was calculated and was used to determine the tumor growth inhibition. Control mice were sacrificed when tumors reached a size of 1500 mm^3. Tumor volumes are reported as the mean±SEM for each group.
When tumors reached a size of 1500 mm^3 in control mice, they were sacrificed as well as two mice from each treatment groups, and tumor infiltration lymphocytes were analyzed. At the study endpoint (day 49) all the surviving mice were sacrificed and tumor infiltration lymphocytes were analyzed. Tumors were dissociated and analyzed for tumor infiltrating lymphocytes by flow cytometry for the following markers: human CD45 infiltrating lymphocytes, hCD3 (T cells), hCD4 (helper T cells), hCD8 (cytotoxic T cells), hCD19 (B cells), T cells activation and proliferation—hCD25.

[3] = tested on: JIMT-1; test: ATP release from cells (ENLITEN ATP Assay), JIMT-1; format: cell-based, human; details: AF-HPA or XMT-1519 conjugate at 0.5 μM, 24 h, mitoxantrone positive control, compared to untreated (control) cells, FIG. 2
Protocol: (§1) Cancer cells undergoing apoptosis in response to specific anticancer therapies are immunogenic (also known as immunogenic cell death (ICD)), as long as they emit precise DAMPs in a spatiotemporally defined fashion. […] Mitoxantrone, a known strong inducer of ICD and ATP release, was used as a positive control. Briefly, two HER2 expressing cell lines, JIMT-1 (cat. # ACC589, DSMZ Cell Collection) and SKBR3 (cat # ATCC® HTB 30™, American Tissue Culture Collection) were seeded at a density of 7500 cells per well in 24 wells plate, allowed to grow for 24 h, and then treated with AF-HPA or XMT-1519 conjugate at 0.5 μM in 100 μl in […] (Cat#11875-119, Thermo Fisher Scientific) for 24 h. The cells were then pelleted by centrifugation and ATP release was measured using ENLITEN® ATP Assay System (Promega) according to manufacturer's instructions.

[4] = tested on: SKBR3; test: ATP release from cells (ENLITEN ATP Assay), SKBR3; format: cell-based; details: AF-HPA or XMT-1519 conjugate at 0.5 μM, 24 h, mitoxantrone positive control, compared to untreated (control) cells, FIG. 2
Protocol: as §1

[5] = tested on: NCI-N87 cells; test: Calreticulin exposure on cell membrane (flow cytometry), NCI-N87; format: cell-based, human; details: 2.5 h at 37° C
Protocol: (§2) High HER2-expressing cell lines, NCI-N87 (800,000 HER2 receptors), SKBR3 (700,000 HER2 receptors) and low HER2 expressing cell line HT-29 (16,000 HER2 receptors) were re-suspended at a density of 2×10^6 cells/mL in 100 μl PBS containing 2% FBS. Cells in 96 well plate (Corning® 96 Well Clear Round Bottom Polypropylene Not Treated Microplate cat#3879) were treated with XMT-1519 conjugate or AF-HPA at 1 μM or with mitoxantrone, a strong calreticulin exposure inducer, at 0.01 to 1 μM for 2.5 h at 37° C. Cells were then incubated with anti-calreticulin antibody (clone 16B11.1 Cat: MABT217, Millipore Sigma, 1:200) in ice cold PBS containing 2% FBS for 1 h on ice, washed twice with cold PBS containing 2% and then incubated for 20 min on ice with a secondary antibody (Alexa 647-anti Mouse IgG (H+L) 1:800, Thermo Fisher Scientific Cat#:A32728) in ice cold PBS containing 2% FBS. Thereafter the cells were stained with Annexin V (Pacific Blue™ cat# A35122, Thermo Fisher Scientific) according to manufacturer's instructions to identify apoptotic cell population. Necrotic cell population was labeled by propidium iodide (cat# P3566 Thermo Fisher Scientific) at 1:1000 dilution. Cells were then analyzed by flow cytometry using MACSQuant® Analyzer 10. Apoptotic and necrotic cell populations were excluded and only live cells for measured for calreticulin exposure.

[6] = tested on: SKBR3; test: Calreticulin exposure on cell membrane (flow cytometry), SKBR3; format: cell-based; details: SKBR3 (700,000 HER2 receptors); 1 μM, 2.5 h at 37° C; FIG. 3
Protocol: as §2

[7] = tested on: HT-29; test: Calreticulin exposure on cell membrane (flow cytometry), HT-29; format: cell-based; details: HT-29 (16,000 HER2 receptors, low HER2); 1 μM, 2.5 h at 37° C; FIG. 3
Protocol: as §2

[8] = tested on: 4T1-7bb7 cells (human HER2-expressing mouse 4T1 breast cancer); test: Tumor response in 4T1-7bb7 syngeneic mouse model (Example 5); format: in vivo, Balb/c mice; details: per Table 2: XMT-1519 conjugate 4.0 mg/kg IV qwx2; Kadcyla 15.0 mg/kg IV qwx2; anti-PD1 mAb 10.0 mg/kg IP days 0, 2, 4, 7, 10; n=13; FIG. 5
Protocol: Tumor growth inhibition (% TGI) was defined as the percent difference in median tumor volumes (MTVs) between treated and control groups.
Treatment efficacy was determined from the incidence and magnitude of regression responses of the tumor size observed during the study. Treatment may cause partial regression (PR) or complete regression (CR) of the tumor in an animal. In a PR response, the tumor volume was 50% or less of its Day 1 volume for three consecutive measurements during the course of the study, and equal to or greater than 13.5 mm^3 for one or more of these three measurements. In a CR response, the tumor volume was less than 13.5 mm^3 for three consecutive measurements during the course of the study. An animal with a CR response at the termination of a study was additionally classified as a tumor-free survivor (TFS). Animals were monitored for regression responses.
Six to eight week old female, Balb/c mice (Jackson Labs, Bar Harbor, Me.) were subcutaneously implanted unilaterally on the left flank with 4×10^4/mouse 4T1-7bb7 cells (n=13 mice/group). […] Tumor sizes were measured twice a week using digital calipers, and average tumor volume was calculated to determine tumor growth inhibition. […]

[9] = NCI-N87 (800,000 HER2 receptors), 1 μM, live cells only, FIG. 3

| Compound | functional activity of HER2 [1] | tumor response (tumor volume / tumor growth inhibition) [2] | ATP release [3] | ATP release [4] | calreticulin exposure on cell membrane [5, 9] | calreticulin exposure on cell membrane [6] | calreticulin exposure on cell membrane [7] | tumor response (tumor growth inhibition / anti-tumor efficacy) [8] | calreticulin exposure on cell membrane ([5]; NCI-N87, mitoxantrone at 0.01 to 1 μM, FIG. 3 panel (a)) |
| --- | --- | --- | --- | --- | --- | --- | --- | --- | --- |
| XMT 1519: fully human HER2 monoclonal antibody, heavy chain SEQ ID NO: 5, light chain SEQ ID NO: 6 | inhibit the functional activity of HER2 in vitro | – | – | – | – | – | – | – | – |
| XMT 1519-(EG2-MI-(7.7 kDa PHF-BA-(AF-HPA-Ala))) [XMT-1519 conjugate] | – | decrease in tumor volume | ATP was released | ATP was released | induced calreticulin exposure | induced calreticulin exposure | induced calreticulin exposure | significant inhibition of tumor growth | – |
| O=C1c2c(O)ccc(O)c2C(=O)c2c(NCCNCCO)ccc(NCCNCCO)c21 [mitoxantrone, reference compound] | – | – | ATP was released | ATP was released | – | – | – | – | dose dependent calreticulin exposure |
| CC[C@H](C)[C@@H]([C@@H](CC(=O)N1CCC[C@H]1[C@H](OC)[C@@H](C)C(=O)N[C@@H](Cc1ccccc1)C(=O)NCCCO)OC)N(C)C(=O)[C@@H](NC(=O)[C@H](C(C)C)N(C)C)C(C)C [AF-HPA, Auristatin F-hydroxypropyl amide] (NMe2Val-V[Dil][Dolaproine]F-{NH(3-hydroxypropyl)}) | – | – | ATP was released | ATP was released | induced calreticulin exposure | – | – | – | – |
